This note sets out measurements from patent US20240262833A1, “FUSED HETEROCYCLIC DERIVATIVES AS NEGATIVE ALLOSTERIC MODULATORS OF MGLU7 RECEPTOR” (Addex Pharma S.A., priority 2021, published 2024).

The structures appear in SMILES notation.

In the assay the target is T1, human metabotropic glutamate 7 receptor (hmGlu7) (Homo sapiens, UniProt Q14831).
T1 construct: expressed in transfected cells
T1 sequence (Q14831 35-922 isoform Q14831-2): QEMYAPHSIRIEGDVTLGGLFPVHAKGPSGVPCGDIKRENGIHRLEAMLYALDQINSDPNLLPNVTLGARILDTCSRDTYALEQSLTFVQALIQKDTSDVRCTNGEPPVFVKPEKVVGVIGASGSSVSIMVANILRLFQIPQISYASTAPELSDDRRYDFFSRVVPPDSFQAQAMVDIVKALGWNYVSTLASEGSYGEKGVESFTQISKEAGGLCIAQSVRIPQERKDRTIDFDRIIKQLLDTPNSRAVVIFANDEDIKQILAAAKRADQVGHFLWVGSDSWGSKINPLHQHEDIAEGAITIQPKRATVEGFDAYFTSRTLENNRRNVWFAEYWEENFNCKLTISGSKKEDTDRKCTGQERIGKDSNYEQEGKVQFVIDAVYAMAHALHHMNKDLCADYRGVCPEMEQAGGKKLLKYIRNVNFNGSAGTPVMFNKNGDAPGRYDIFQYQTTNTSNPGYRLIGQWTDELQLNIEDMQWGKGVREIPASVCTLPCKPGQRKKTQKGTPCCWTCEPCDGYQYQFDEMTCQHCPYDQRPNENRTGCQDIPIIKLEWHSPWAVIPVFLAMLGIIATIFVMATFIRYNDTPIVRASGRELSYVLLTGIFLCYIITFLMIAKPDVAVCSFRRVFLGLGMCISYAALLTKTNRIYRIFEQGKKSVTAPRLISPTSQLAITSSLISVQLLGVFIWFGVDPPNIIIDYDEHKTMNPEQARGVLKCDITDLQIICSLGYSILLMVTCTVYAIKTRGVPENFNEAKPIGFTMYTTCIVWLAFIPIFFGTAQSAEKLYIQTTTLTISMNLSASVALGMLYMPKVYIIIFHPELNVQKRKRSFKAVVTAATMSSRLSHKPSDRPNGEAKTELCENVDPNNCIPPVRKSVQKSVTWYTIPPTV
Briefly: mGlu7 assay on HEK-expressing human mGlu7: fluorescent cell based Ca2+ mobilization assay (FLIPR), inhibition of EC80 L-AP4 response. Conditions: HEK-293 cells expressing hmGlu7; EC80 L-AP4 stimulation; mean of at least three independent experiments in duplicate; read-out: Ca2+ Flux (mean IC50). From the text:
mGlu7 Assay on HEK-Expressing Human mGlu7
The cDNA encoding the human metabotropic glutamate 7 receptor (hmGlu7), (accession number NM_181874.2, NCBI Nucleotide database browser), was subcloned into an expression vector containing also the hygromycin resistance gene. In parallel, the cDNA encoding a G protein allowing redirection of the activation signal to intracellular calcium flux was subcloned into a different expression vector containing also the Puromycin resistance gene. Transfection of both these vectors into HEK293 cells with PolyFect reagent (Qiagen) according to supplier's protocol, and hygromycin and puromycin treatment allowed selection of antibiotic resistant cells which had integrated stably one or more copies of the plasmids. Positive cellular clones expressing hmGlu7 were identified in a functional assay measuring changes in calcium fluxes in response to glutamate and L-AP4 or known mGlu7 orthosteric antagonists.
HEK-293 cells expressing hmGlu7 were maintained in media containing DMEM, Fetal Bovine Serum (10%), Glutamax™ (2 mM), penicillin (100 units/mL), streptomycin (100 μg/mL), geneticin (100 μg/mL) and hygromycin-B (40 μg/mL) and puromycin (1 μg/mL) at 37° C. with 5% CO2 in a humidified atmosphere.
Fluorescent Cell Based-Ca^2+ Mobilization Assay Human mGlu7 HEK-293 cells were plated out 24 hours prior to a fluorescent cell-based calcium mobilization assay using FLIPR^384 assay (Molecular Device, Sunnyvale, CA, USA) in black-walled, clear-bottomed, poly-L-ornithine-coated 384-well plates at a density of 25,000 cells/well in a glutamine/glutamate free DMEM medium containing fetal bovine serum (10%), penicillin (100 units/mL), streptomycin (100 μg/mL) and doxycyline (1 μg/ml) at 37° C. with 5% CO2 in a humidified atmosphere.
On the day of the assay, the medium was aspirated and the cells were loaded with a 3 μM solution of Fluo4-AM (LuBioScience, Lucerne, Switzerland) in 0.03% pluronic acid. After 1 hour at 37° C./5% CO2, the non incorporated dye was removed by washing cell plate with the assay buffer. All assays were performed in a pH 7.4 buffered-solution containing 20 mM HEPES, 143 mM NaCl, 6 mM KCl, 1 mM MgSO4, 1 mM CaCl2, 0.125 mM sulfinpyrazone and 0.1% glucose.
After 10 s of basal fluorescence recording, various concentrations of the compounds of the invention were added to the cells. Changes in fluorescence levels were first monitored for 180 s in order to detect any agonist activity of the compounds. Then the cells were stimulated by an EC80 L-AP4 concentration for an additional 110 s in order to measure inhibiting activities of the compounds of the invention. EC80 L-AP4 concentration is the concentration giving 80% of the maximal glutamate response.
The concentration-response curves of L-AP4 or representative compounds of the present invention were generated using the Prism GraphPad software (Graph Pad Inc, San Diego, USA). The curves were fitted to a four-parameter logistic equation: […]
allowing determination of IC50 values.
The Table 3 below represents the mean IC50 obtained from at least three independent experiments of selected molecules performed in duplicate.
In general terms: Calcium flux is commonly read through the fluorescence of an indicator in the cells.
For the compound `COc1cccc(-n2c(C)c3cnn(-c4ccccc4OC)c(=O)c3c2C)c1` [1-148], the half-maximal inhibitory concentration (IC50) lay in the range of 100 to 1000 nM.
On to `COc1cccc(-n2c(C)c3cnn(-c4ccccc4F)c(=O)c3c2C)c1` [1-149], for which the IC50 is less than 100 nM.
As to `COc1cccc(-n2c(C)c3cnn(-c4ccccc4Cl)c(=O)c3c2C)c1` [1-150], the IC50 was in the range of 100 to 1000 nM.
For the compound `Cc1c2cnn(-c3cccc(S(C)(=O)=O)c3)c(=O)c2c(C)n1-c1cccc(N2CCC2)c1` [1-151], the IC50 was less than 100 nM.
Next, `Cc1c2cnn(-c3cccc(C(N)=O)c3)c(=O)c2c(C)n1-c1cccc(N2CCC2)c1` [1-152]: 100 to 1000 nM.
Next, `Cc1c2cnn(-c3ccccn3)c(=O)c2c(C)n1-c1cccc(N2CC(F)(F)C2)c1` [1-153]: 100 to 1000 nM; `Cc1cccc(-n2ncc3c(C)n(-c4cccc(N5CCC5)c4)c(C)c3c2=O)n1` [1-154]: 100 to 1000 nM.
The figure for `Cc1ccc(-n2ncc3c(C)n(-c4cccc(N5CCC5)c4)c(C)c3c2=O)nc1` [1-155] is less than 100 nM; for `Cc1c2cnn(-c3ccncc3)c(=O)c2c(C)n1-c1cccc(N2CCC2)c1` [1-156] it is less than 100 nM; for `Cc1ccc(-n2ncc3c(C)n(-c4cccc(N5CCC5)c4)c(C)c3c2=O)cn1` [1-157] it is less than 100 nM.
Consider `Cc1cncc(-n2ncc3c(C)n(-c4cccc(N5CCC5)c4)c(C)c3c2=O)c1` [1-158], for which the IC50 was less than 100 nM.
The figure for `Cc1cccnc1-n1ncc2c(C)n(-c3cccc(N4CCC4)c3)c(C)c2c1=O` [1-159] is 100 to 1000 nM.
With `Cc1c2cnn(-c3ccc(C#N)cn3)c(=O)c2c(C)n1-c1cccc(N2CCC2)c1` [1-160], the IC50 is less than 100 nM.
The figure for `Cc1ccnc(-n2ncc3c(C)n(-c4cccc(N5CCC5)c4)c(C)c3c2=O)c1` [1-161] is less than 100 nM.
Regarding `COCCOc1ccc(-n2ncc3c(C)n(-c4cccc(N5CCC5)c4)c(C)c3c2=O)cc1` [1-162], the IC50 was less than 100 nM.
As to `COc1ccc(-n2ncc3c(C)n(-c4cccc(N5CCC5)c4)c(C)c3c2=O)cc1CO` [1-163], the IC50 was less than 100 nM.
Next, `Cc1c2cnn(-c3cccnc3)c(=O)c2c(C)n1-c1cccc(N2CCC2)c1` [1-164]: less than 100 nM; `Cc1cc(-n2ncc3c(C)n(-c4cccc(N5CCC5)c4)c(C)c3c2=O)cc(C)n1` [1-165]: less than 100 nM.
As for `COc1cc(-n2ncc3c(C)n(-c4cccc(N5CCC5)c4)c(C)c3c2=O)ccc1CO` [1-166], the IC50 is less than 100 nM.
As to `Cc1c2cnn(-c3cccc(N4CCOCC4)c3)c(=O)c2c(C)n1-c1cccc(N2CCC2)c1` [1-167], the IC50 was in the range of 100 to 1000 nM.
Next, `Cc1c2cnn(-c3ccc(N4CCCC4)cc3)c(=O)c2c(C)n1-c1cccc(N2CCC2)c1` [1-168, 6-(3-(Azetidin-1-yl)phenyl)-5,7-dimethyl-2-(4-(pyrrolidin-1-yl)phenyl)-2,6-dihydro-1H-pyrrolo[3,4-d]pyridazin-1-one]: 100 to 1000 nM.
Next, `Cc1c2cnn(-c3ccc(CCO)cc3)c(=O)c2c(C)n1-c1cccc(N2CCC2)c1` [1-169, 6-(3-(Azetidin-1-yl)phenyl)-2-(4-(2-hydroxyethyl)phenyl)-5,7-dimethyl-2,6-dihydro-1H-pyrrolo[3,4-d]pyridazin-1-one]: less than 100 nM.
Next, `Cc1c2cnn(-c3ccc(C(C)(C)O)cc3)c(=O)c2c(C)n1-c1cccc(N2CCC2)c1` [1-170, 6-(3-(Azetidin-1-yl)phenyl)-2-(4-(2-hydroxypropan-2-yl)phenyl)-5,7-dimethyl-2,6-dihydro-1H-pyrrolo[3,4-d]pyridazin-1-one]: less than 100 nM; `CC(=O)c1ccc(-n2ncc3c(C)n(-c4cccc(N5CCC5)c4)c(C)c3c2=O)cc1` [1-171]: less than 100 nM.
For the compound `COc1cccc(-n2c(C)c3cnn(-c4ccc(C)cn4)c(=O)c3c2C)c1` [1-172], the IC50 lay in the range of 100 to 1000 nM.
Next, `Cc1c2cnn(-c3ccc(F)cn3)c(=O)c2c(C)n1-c1cccc(N2CCC2)c1` [1-173]: less than 100 nM; `Cc1c2cnn(-c3ccc(N4CCNCC4)cc3)c(=O)c2c(C)n1-c1cccc(N2CCC2)c1` [1-174]: less than 100 nM; `COc1cc(OC)cc(-n2c(C)c3cnn(-c4ccccn4)c(=O)c3c2C)c1` [1-175]: 100 to 1000 nM.
For `COc1ccccc1-n1ncc2c(C)n(-c3cccc(N4CCC4)c3)c(C)c2c1=O` [1-176], the IC50 lay in the range of 100 to 1000 nM.
The figure for `Cc1c2cnn(-c3ccccc3F)c(=O)c2c(C)n1-c1cccc(N2CCC2)c1` [1-177] is less than 100 nM; for `Cc1c2cnn(-c3ccc(N4CCNC(=O)C4)cc3)c(=O)c2c(C)n1-c1cccc(N2CCC2)c1` [1-178] it is less than 100 nM.
With `Cc1c2cnn(-c3ccccn3)c(=O)c2c(C)n1-c1cccc(N2CCC(C)(C)C2)c1` [1-179], the IC50 lay in the range of 100 to 1000 nM.
Next, `CNC(=O)Cc1ccc(-n2ncc3c(C)n(-c4cccc(N5CCC5)c4)c(C)c3c2=O)cc1` [1-180]: less than 100 nM; `Cc1c2cnn(-c3ccc(I)cc3)c(=O)c2c(C)n1-c1cccc(N2CCC2)c1` [1-181]: 1000 to 10000 nM.
The figure for `Cc1cc(-n2ncc3c(C)n(-c4cccc(N5CCC5)c4)c(C)c3c2=O)ccn1` [1-182] is less than 100 nM.
The figure for `Cc1c2cnn(-c3ccc(Cl)cn3)c(=O)c2c(C)n1-c1cccc(N2CCC2)c1` [1-183] is less than 100 nM; for `Cc1c2cnn(-c3ccc(C(=O)CNC(=O)OC(C)(C)C)cc3)c(=O)c2c(C)n1-c1cccc(N2CCC2)c1` [1-184] it is 100 to 1000 nM.
For the compound `Cc1c2cnn(-c3ccc(CC(N)=O)cc3)c(=O)c2c(C)n1-c1cccc(N2CCC2)c1` [1-185], the IC50 was less than 100 nM.
For `Cc1c2cnn(-c3ccccn3)c(=O)c2c(C)n1-c1ccc(C2CC2)cc1` [1-186], the IC50 was in the range of 100 to 1000 nM.
The figure for `Cc1c2cnn(-c3ccccn3)c(=O)c2c(C)n1-c1cccc(Oc2ccccc2)c1` [1-187] is 1000 to 10000 nM; for `Cc1c2cnn(-c3ccc(CCF)cc3)c(=O)c2c(C)n1-c1cccc(N2CCC2)c1` [1-189, 6-(3-(Azetidin-1-yl)phenyl)-2-(4-(2-fluoroethyl)phenyl)-5,7-dimethyl-2,6-dihydro-1H-pyrrolo[3,4-d]pyridazin-1-one] it is less than 100 nM; for `Cc1c2cnn(C3CCCC3)c(=O)c2c(C)n1-c1cccc(N2CCC2)c1` [1-190] it is 100 to 1000 nM.
The figure for `COc1cc(F)ccc1-n1c(C)c2cnn(-c3ccccn3)c(=O)c2c1C` [1-191] is 1000 to 10000 nM; for `Cc1c2cnn(-c3ccccn3)c(=O)c2c(C)n1-c1ccc(F)c(N2CCC2)c1` [1-192] it is 100 to 1000 nM.
`COc1ccccc1-n1c(C)c2cnn(-c3ccccn3)c(=O)c2c1C` [1-193]: the IC50 fell in the range of 1000 to 10000 nM.
The figure for `COc1ccc(F)c(-n2c(C)c3cnn(-c4ccccn4)c(=O)c3c2C)c1` [1-194] is 100 to 1000 nM.
The figure for `Cc1c2cnn(-c3ccccn3)c(=O)c2c(C)n1-c1cc(F)cc(N2CCC2)c1` [1-195] is less than 100 nM; for `Cc1c2cnn(-c3ccccn3)c(=O)c2c(C)n1-c1cc(N2CCC2)ccc1F` [1-196] it is less than 100 nM.
For `COc1cccc(-n2c(C)c3cnn(-c4ccccn4)c(=O)c3c2C)c1Cl` [1-197], the IC50 fell in the range of 100 to 1000 nM.
In the case of `Cc1c2cnn(-c3ncccn3)c(=O)c2c(C)n1-c1cccc2c1ccn2C1CC1` [1-198], the IC50 is less than 100 nM.
The figure for `Cc1c(OC2CC2)cccc1-n1c(C)c2cnn(-c3ncccn3)c(=O)c2c1C` [1-200] is less than 100 nM; for `Cc1ccc(-n2c(C)c3cnn(-c4ccccn4)c(=O)c3c2C)c(C)c1` [1-201] it is 100 to 1000 nM.

By IC50 is commonly meant the concentration at which inhibition is half-maximal.
